Source: patent publication US20110172163A1, “Novel Protease Inhibitors” (QUEENSLAND UNIVERSITY OF TECHNOLOGY, priority 2008, published 2011)
“Also recorded” adds a separate entry of the source. Like-named read-outs stand apart in the source and are kept apart here. Bridge positions count the residues as written; N and C are the ends. Peptide text beside a SMILES is read from it.

Key:
KLK4 = KLK4 (Homo sapiens, UniProt Q9Y5K2); experiment: Inhibitor kinetics: KLK4 amidolytic activity with peptide-pNA substrates; format: biochemical; parameters: pro-region of PSA (KLK3), replacing the native KLK4 pro-region (N, cleaved yes); made in house
Description: Human recombinant KLK4 was expressed in E. coli using a previously described chimeric KLK4 plasmid construct where the native pro-region was replaced with the pro-region of PSA, enabling autoactivation. Protein was expressed as inclusion bodies which were isolated and solubilised as described previously to yield 90% pure KLK4. Protein refolding was performed by dilution into 100 volumes of refolding buffer I (2 M urea, 0.1M NaCl, 5 mM GSH, 0.5 mM GSSG, 10 mM benzamidine, 50 mM tris HCl pH 8.0, 2 mM CaCl2) over 44 hours before further dilution into 3 volumes refolding buffer II (refolding buffer I with 0.5 M urea 0.5 mM GSH, 0.05 mM GSSG, 2 mM CaCl2) over another 24 hours. Dialysis was performed as previously described (with additional 2 mM CaCl2 to reduce aggregation) before concentration using UNO sphere Q (Biorad) eluting with tris buffered saline (pH 7.5)/2 mM CaCl2. Subsequently, the material was purified to apparent homogeneity (according to coomassie blue stained SDS PAGE) by gel filtration using Sephacryl S-200 (GE Health Care) pre-equilibrated with 50 mM Tris-HCl pH 7.5, 20 mM NaCl and 2 mM CaCl2.
All enzymes and substrates were obtained from Sigma Chemicals if not otherwise specified. Bacterially expressed human KLK4 (37 ng), bovine β-trypsin (20 ng), bovine thrombin (20 ng), bovine α-chymotrypsin (0.5 μg), protease (0.5 μg; Streptomyces griseus type XIV), bovine plasminogen (0.5 μg), and human matriptase (30 ng; R&D Systems) were incubated with various concentrations of inhibitors in 200 μL assay buffer for 10 minutes prior to initiation by the addition of 100 μL of 0.3 mM of peptide-pNA substrates (FVQR-pNA: KLK4; BAPNA: trypsin, (Streptomyces griseus Type XIV Protease and bovine plasma plasminogen); Bz-Phe-Val-Arg-pNA: thrombin and matriptase; Trp-pNA: α-chymotrypsin; Leu-pNA: (Streptomyces griseus Type XIV Protease and bovine plasma plasminogen). The release of pNa moiety was monitored as described above for 7 minutes with each point being the average of three independent triplicate reactions. IC50 was determined using the Prism 5 software suite (GraphPad software Inc.).

iKLK4 = experiment: KLK4 stimulated calcium release in LMF stably expressing human PAR-2; format: cell-based
Description: (§1) Lung murine fibroblasts (LMF) from Par-1 null mice stably expressing human PAR-2 were grown to 80% confluence as previously described, washed with PBS, detached nonenzymatically, resuspended (4×10^6 cells/ml) in extracellular medium (121 mM NaCl, 5.4 mM KCl, 0.8 mM MgCl2, 1.8 mM CaCl2, 5.5 mM glucose, 25 mM HEPES (pH 7.4)) containing 0.2% (w/v) bovine serum albumin (Sigma) and then loaded with the fluorescence indicator Fura-2 acetoxymethyl ester (1.0 μM; Invitrogen) at room temperature for 60 min. Cells were then pelleted followed by resuspension in extracellular medium (without bovine serum albumin) at a concentration of 2×10^6 cells/ml for fluorescence measurements. The ratio of fluorescence at 510 nm after excitation at 340 and 380 nm was monitored (Polarstar Optima fluorescent plate reader) during treatment with bovine β trypsin (Sigma Chemicals), PAR-2 activating peptide SLIGKV (AusPep) and iKLK4 with or without SFTI-FCQR.

KLK5 = KLK5 (Homo sapiens, UniProt Q9Y337); experiment: Inhibitor kinetics: KLK5 amidolytic activity; format: biochemical; details: substrate Bz-PFR-pNA (0.2 mM)
trypsin = biological target: T1, trypsin (Bos taurus, UniProt P00760); experiment: Protein proteolysis: fibrinogen digestion by trypsin (SDS-PAGE); format: biochemical, bovine; details: up to a concentration of 2 μM
T1 construct: purchased Sigma Chemicals
Description: Fibrinogen was solubilised in assay buffer to a final concentration of 1 mg/ml and digested with KLK4 (+/−inhibitor) over a period of 90 minutes at 37° C. Typically assays consisted of 5 μM protein substrate and 2.5 nM KLK4 protein or 1 nM trypsin made up to a final volume of 8 μl with assay buffer. Proteolysis was initiated by addition of KLK4 and terminated by addition of SDS PAGE sample buffer and heat denaturation at 100° C. for 5 minutes. Hydrolysis products were resolved on 10% SDS PAGE gels and compared with incubations terminated immediately after initiation (time 0), and substrate proteins incubated in assay buffer for 90 minutes in the absence of KLK4 or 4-16 mins with trypsin.

[1] = system: LNCaP prostate cancer cells; experiment: Primary tumour growth of LNCaP cells in nude mice (luciferase imaging); format: in vivo; details: 3×i.v. doses of 0.2 mg/kg, when tumour specific growth rate was less than 2%/day
Description: Nude mice were injected with 1.5×10^6 LNCaP prostate cancer cells stably expressing an exogenous luciferase reporter gene and imaged over a period of 56 days. Tumour growth was measured by injecting mice with […] (a luminescent substrate for luciferase) and the resulting light emissions were quantified using a xenogen in vivo imaging system.

[2] = Stability of SFTI variants in contact with prostate cancer cells in vitro; format: in vitro ADME; details: for half-life at 1 μM: RPMI 1640 with 10% fetal calf serum, read-out: t1/2 of residual inhibitory activity (converted)
Description: Cell monolayers of LNCaP, 22Rv1 and PC3 cells were established in RPMI 1640 medium containing 10% fetal calf serum. Each cell line was treated +/−1 μM SFTI-FCQR contained in 4.0 mL RPMI media (as above) with a vehicle control to account for inhibition by intrinsic media factors. 25 μL samples of media were taken at 0, 24, 48, 72, 96 and 120 hrs timepoints. Media samples were boiled at 97° C. for 15 min, centrifuged at 14,000 rpm for 5 min to remove cellular debris and precipitated protein. Residual SFTI-FCQR inhibitory activity in the medium was determined against recombinant KLK4 using FVQR-pNA as a peptide substrate as above using 15ng KLK4 and 30 nmol FVQR-pNA with 2.5 μL and […] of media+/−SFTI-FCQR added from each treatment.

human PAR-2 = experiment: PAR-2 activating peptide stimulated calcium release in LMF stably expressing human PAR-2; format: cell-based
Description: as §1

KLK4, sequence (Q9Y5K2 31-254): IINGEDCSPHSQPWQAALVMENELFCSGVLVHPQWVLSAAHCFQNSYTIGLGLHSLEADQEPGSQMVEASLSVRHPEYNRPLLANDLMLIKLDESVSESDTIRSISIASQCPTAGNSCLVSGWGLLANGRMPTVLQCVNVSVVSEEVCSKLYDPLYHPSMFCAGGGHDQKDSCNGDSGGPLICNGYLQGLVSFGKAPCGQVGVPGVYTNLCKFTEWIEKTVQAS
T1 sequence (P00760 18-246 limits assumed): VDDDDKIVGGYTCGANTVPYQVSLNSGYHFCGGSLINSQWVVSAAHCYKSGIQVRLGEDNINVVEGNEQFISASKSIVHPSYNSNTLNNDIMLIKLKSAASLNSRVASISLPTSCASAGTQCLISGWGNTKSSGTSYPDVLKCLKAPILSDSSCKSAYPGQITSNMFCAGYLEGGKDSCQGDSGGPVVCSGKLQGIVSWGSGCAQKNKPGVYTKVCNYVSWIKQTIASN
KLK5, sequence (Q9Y337 23-293): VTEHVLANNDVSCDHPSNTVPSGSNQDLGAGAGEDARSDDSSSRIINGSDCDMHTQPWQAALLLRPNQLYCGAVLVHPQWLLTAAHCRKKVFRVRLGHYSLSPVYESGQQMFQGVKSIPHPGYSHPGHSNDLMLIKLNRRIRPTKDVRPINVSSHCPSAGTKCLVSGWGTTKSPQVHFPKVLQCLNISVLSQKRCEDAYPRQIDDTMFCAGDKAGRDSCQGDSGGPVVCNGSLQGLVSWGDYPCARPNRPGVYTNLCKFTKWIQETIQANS

With `CC[C@H](C)[C@@H]1NC(=O)[C@@H]2CCCN2C(=O)[C@@H]2CCCN2C(=O)[C@H]([C@@H](C)CC)NC(=O)[C@H](CO)NC(=O)[C@H](CCCNC(=N)N)NC(=O)[C@H](CCC(N)=O)NC(=O)[C@@H]2CSSC[C@H](NC1=O)C(=O)N[C@@H](Cc1ccccc1)C(=O)N1CCC[C@H]1C(=O)N[C@@H](CC(=O)O)C(=O)NCC(=O)N[C@@H](Cc1ccccc1)C(=O)N2` [SFTI-FCQR] (cyclo(GFCQRSIPPICFPD); disulfide 3-11) the IC50 (KLK4) was 7.97 ± 1.08 nM, the Ki (KLK4) was 3.59 ± 1.08 nM and the “effect on KLK4 stimulated calcium release” value (iKLK4; 1 μM SFTI-FCQR, iKLK4 300 nM) was “extremely robust blockade of calcium release”. For the same compound, the “inhibition of KLK4 stimulated calcium flux” value (iKLK4; at a concentration of 1 mM (as printed in discussion)) was “complete inhibition”, the IC50 (KLK5) was 2350 ± 721 nM and the “inhibition of tryptic digestion of fibrinogen” value (trypsin) was “no inhibition”. For the same compound, the “tumour growth rate in comparison to control” value [1] was “arrested tumour growth rate”, the “residual inhibition of recombinant KLK4 by tissue culture supernatant” value ([2]; 1:5 dilution of supernatant, after a week of contact with prostate cancer cells) was “complete inhibition” and the half-life at 1 μM ([2]; 22Rv1 cell monolayers, 1 μM incubated with 22RV1 cells) was 117 h. The half-life at 1 μM ([2]; LNCaP cell monolayers, 1 μM incubated with LNCaP cells) was 119 h, the half-life at 1 μM ([2]; PC3 cell monolayers, 1 μM incubated with PC3 cells) was 89 h and the “effect on calcium release by PAR-2 activating peptide” value (human PAR-2; 1 μM SFTI-FCQR, PAR-2 activating peptide 100 nM) was “permissive for calcium release; also recorded: no effect”. For the same compound, the “effect on intracellular Ca^2+ of inhibitor alone” value (human PAR-2; SFTI-FCQR 1 μM without agonist) was “no effect”.
